Patent US20040185566A1, “Polypeptides toxic to nematodes and methods of use” (priority 2003, published 2004)
Like-named read-outs stand apart in the source and are kept apart here. Where a SMILES comes first, the peptide text is derived from it. [ ]: non-standard residue; d: D form. The star is where a group is joined. Sta = CC(C)C[C@H](N)[C@@H](O)CC(=O)O; Isovaleryl = CC(C)CC(=O)*

Target: SMP #1 (Serratia marcescens, UniProt P23694, N428Q/P266L)
Format: biochemical, S. marcescens NRRL B-23112

For `CC(C)C[C@H](NC(=O)[C@@H](O)[C@H](N)Cc1ccccc1)C(=O)O` [bestatin], the “inhibition of SMP #1 proteolytic activity” value (from here on “inhibition”) (bestatin 80 μg/ml) was “not inhibited”.

With `CC(C)C[C@H](NC(=O)[C@@H](NC(=O)N[C@@H](Cc1ccccc1)C(=O)O)[C@@H]1CCN=C(N)N1)C(=O)N[C@H](C=O)Cc1ccccc1` [chymostatin] the “inhibition” value (chymostatin 50 μg/ml) was “not inhibited”.

For `CC(=O)N[C@@H](CC(C)C)C(=O)N[C@@H](CC(C)C)C(=O)N[C@H](C=O)CCCNC(=N)N` [leupeptin], the “inhibition” value (leupeptin 4 μg/ml) was “not inhibited”.

For `CC(C)CC(=O)N[C@H](C(=O)N[C@H](C(=O)N[C@@H](CC(C)C)[C@@H](O)CC(=O)N[C@@H](C)C(=O)N[C@@H](CC(C)C)[C@@H](O)CC(=O)O)C(C)C)C(C)C` [pepstatin] (Isovaleryl-VV[Sta]A[Sta]-OH), the “inhibition” value (pepstatin 4 μg/ml) was “not inhibited”.

`O=S(=O)(F)Cc1ccccc1` [phenylmethylsulfonyl fluoride] was tested, and the “inhibition” value (phenylmethylsulfonyl fluoride 400 μ/ml) was “not inhibited”.

`CC(C)C[C@H](NP(=O)(O)O[C@@H]1O[C@@H](C)[C@H](O)[C@@H](O)[C@H]1O)C(=O)N[C@@H](Cc1c[nH]c2ccccc12)C(=O)O` [phosphoramidon] was tested, and the “inhibition” value (phosphoramidon 660 μ/ml) was “not inhibited”.
